Measurements published in patent US8802117B2 (Mavi Sud S.r.l., priority 2006, dated 2014).
“Also recorded” adds a separate entry of the source.

What was measured:
[1] = Overall in vitro and in vivo tests of tables 1-9 (fibroblast growth, ATP, collagen, IL-8, hydration, lipids, lipid peroxides, melanin); settings: in association with melatonin, concentrations being equal
Experimental: Fibroblasts of NB1RGB strain were used (2×10^5 cell/ml) and suspended in the α-MEM culture medium placed in 10 Petri dishes (containing 10% foetal bovine serum (FBS), 100 units/ml penicillin and 100 µg/ml streptomycin). while two were left as control. All products were additioned in a 1 μg/ml concentration. All biochemical processes require energy that is accumulated in the form of ATP (adenosyn-triphosphate). […] Out of the 9 culture-containing Petri dishes used, 8 were additioned with 1% μg/ml of the different substances to be tested, whereas one served as control. A continuous and regular collagen synthesis is of fundamental importance for the ECM (extracellular matrix) structure, and therefore for skin elasticity and compactness and wrinkle reduction. Collagen 1 presence was verified with the use of specific antibodies on all ten cell cultures, 8 of which enriched with 1% μl/ml of the various substances directly introduced in the culture medium, and one as control. Collected blood aliquots, pre-supplemented and non-supplemented with the components under study (1 μl/ml) were subdivided into 10 Petri dishes, 8 of which were further supplemented with 10 μl/ml Tumor Necrose Factor a (TNF-α), and one left as control. […] IL-8 amounts were determined photometrically, by specific antibodies. […] During the checking, skin surface lipids and hydration were verified by 3C System. Lipid peroxides were checked with the Pugliesi method (Pugliesi P. (1990) Assessment of Antiaging Products. In: W.C. […] This experiment was meant to assess the protective activity of these compounds if and when taken orally. […] (International Units)/ml penicillin and […] streptomycin) containing 2 mM teophylline. The suspension was subdivided into 7 500-μl portions. To each portion, placed in suitable bars, […] of the various mixtures of active agents were added. Of each mixture 6 samples were prepared.

[2] = tested on: anagen phase of hair cycle; test: Action on the anagen phase of hair cycle: lotions A, B, C on the scalp of volunteers for 60 days; format: in vivo, human; settings: topical lotion morning and evening
Description: Thirty volunteers (15 women and 15 men) suffering from general hair problems: slight thinning out, thinning, continual loss of hair and occasional formation of forms of alopecia restricted to scalp areas, were subjected to the treatment.
All subjects were given, under double-blind conditions, a lotion to be applied morning and evening by light friction, in the amount of 5/6 drops poured on the various areas and deemed sufficient for the treatment of the entire scalp.
The study lasted 60 days.
At day 0, an area of about 1 cm^2 was delimited in the anteroparietal zone of the scalp, from which hair was carefully removed. Removed hair were weighted to verify the mass thereof, and the number of follicles present was counted by a suitable grid.
At day +60, the number and weight of regrown hair were reassessed, again checking the number of follicles present.

nerve cell cultures = test: Preliminary investigation of cell vitality and toxicity on nerve cell cultures (in vitro cellular models); format: cell-based

## CC1=C(/C=C/C(C)=C/C=C/C(C)=C/C=C/C=C(C)/C=C/C=C(C)/C=C/C2=C(C)CCCC2(C)C)C(C)(C)CCC1 [beta-carotene]
[1]
  enhancement of melatonin action (synergy): significantly enhance the bioprotective activity of melatonin; also recorded: further enhance the positive effects of melatonin

## CC1=NCC[C@@H](C(=O)O)N1 [ectoine]
[1]
  enhancement of melatonin action (synergy): significantly enhance the bioprotective activity of melatonin

## O=C(O)CCCCC1CCSS1 (stereo not drawn) [lipoic acid]
[1]
  enhancement of melatonin action (synergy): significantly enhance the bioprotective activity of melatonin; also recorded: further enhance the positive effects of melatonin; also recorded: tendentially more active than carotenoids

## CC1=C[C@H](O)CC(C)(C)[C@H]1/C=C/C(C)=C/C=C/C(C)=C/C=C/C=C(C)/C=C/C=C(C)/C=C/C1=C(C)C[C@@H](O)CC1(C)C [lutein]
[1]
  enhancement of melatonin action (synergy): significantly enhance the bioprotective activity of melatonin; also recorded: further enhance the positive effects of melatonin

## COc1ccc2[nH]cc(CCNC(C)=O)c2c1 [melatonin]
[2]
  anagen phase of hair / hair regrowth: causes an increase of the anagen phase of hair, thereby enhancing its regrowth
  hair weight (volume, body): without however exerting an effect on the hair weight itself
Nerve cell cultures; increasing concentrations, 3-mg melatonin alone vs association of melatonin, carotenoid, immunostimulant each 11-mg
  toxicity / reduction of cell vitality: cell vitality tends to reduce; also recorded: far more toxic
Nerve cell cultures; suitable concentrations, in vitro model
  cytoprotective action towards free radicals of Oxygen (ROS), cell vitality: capable of preserving cell vitality

## beta-glucan
[1]
  enhancement of melatonin action (synergy): significantly enhance the bioprotective activity of melatonin; also recorded: tendentially more active than ectoine
